Measured values as given in PubChem BioAssay (NCI).
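These data come from cells grown in 96-well plates and exposed to compound for 48 hours at five concentrations. Definition used: TGI = concentration required for complete inhibition of growth.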

How the values were obtained:
Experiment in all cases: growth of human tumour cells (NCI), 48 h
[1] = tested on: HOP-62 NSCLC
[2] = tested on: HOP-92 NSCLC
[3] = tested on: HS 578T breast
[4] = tested on: HT29 colon
[5] = tested on: IGROV1 ovarian
[6] = tested on: MDA-MB-231 breast
[7] = tested on: NCI-H226 lung
[8] = tested on: SK-MEL-5 melanoma
[9] = tested on: SN12C renal
[10] = tested on: SNB-19 CNS
[11] = tested on: SNB-75 CNS
[12] = tested on: SW-620 colon
[13] = tested on: UACC-257 melanoma
[14] = tested on: HCT-116 colon
[15] = tested on: SF-268 CNS
[16] = tested on: T-47D breast
[17] = tested on: BT-549 breast

Compound | TGI [1] [µM] | TGI [2] [µM] | TGI [3] [µM] | TGI [4] [µM] | TGI [5] [µM] | TGI [6] [µM] | TGI [7] [µM] | TGI [8] [µM] | TGI [9] [µM] | TGI [10] [µM] | TGI [11] [µM] | TGI [12] [µM] | TGI [13] [µM] | TGI [14] [µM] | TGI [15] [µM] | TGI [16] [µM] | TGI [17] [µM]
C[n+]1c(-c2ccc(/C=N\Nc3ccnc(N/N=C/c4ccc(-c5cn6ccsc6[n+]5C)cc4)n3)cc2)cn2ccsc21 | 51.6 | > 100 | > 100 | > 100 | 65.4 | 67.3 | 66.7 | 35.4 | > 100 | > 100 | 92.1 | > 100 | 43.9 | – | – | – | –
C[Si](C)(C)CCOCN(C(=O)C1=CCC2(CC1)OCCO2)c1ccccc1I | 42.1 | 22.1 | 44.6 | > 100 | 42.9 | 56.6 | 53.8 | > 100 | 70.9 | 37.7 | 34.6 | 68 | 54.3 | 44.8 | 41.9 | > 100 | –
CC(=O)Nc1ccc2cc(C#N)c(=O)[nH]c2n1 | > 100 | > 100 | – | – | > 100 | > 100 | > 100 | > 100 | > 100 | > 100 | > 100 | > 100 | > 100 | > 100 | > 100 | > 100 | > 100
NN/C(=N\S(=O)(=O)c1cc(S(=O)(=O)c2ccccc2)cs1)Nc1ccc(Cl)cc1 | > 100 | > 100 | – | > 100 | > 100 | > 100 | > 100 | 32.3 | > 100 | > 100 | 67.2 | > 100 | 47.5 | 74.6 | 89 | 55.9 | > 100
CCN(CC)CCC(=O)c1ccc(Cl)c(Cl)c1 | > 100 | 30.6 | 45.9 | > 100 | > 100 | – | > 100 | 35.5 | > 100 | > 100 | 80.1 | 41.3 | > 100 | 68.3 | 63.4 | 51.1 | 36.3
Cc1cc(C(O)CCCc2ccccc2)cc(C)c1O (stereo not given) | > 100 | – | – | – | > 100 | – | > 100 | 48.9 | > 100 | 67.2 | 78 | > 100 | 95.6 | – | > 100 | – | –
CC1=CP(=O)(OC(C)C)C=C(C)C1=C(Cl)Cl (stereo not given) | > 100 | 54.6 | – | > 100 | > 100 | – | 87.2 | > 100 | > 100 | > 100 | > 100 | > 100 | > 100 | 70.5 | > 100 | – | –
C=C1C(=O)O[C@H]2C(=O)[C@H](C)CCC/C(C)=C/CC[C@@]3(C)O[C@@H]3C[C@@H]12 | 24.3 | 2.99 | 28.4 | 10.6 | 10.2 | 23.3 | 33.3 | 20.7 | 18.3 | 24.1 | – | 3.54 | 11.7 | 2.26 | 16.4 | 4.35 | –
S=c1[nH]nc(COc2ccc(Cl)cc2)n1-c1ccccc1 | > 100 | > 100 | – | > 100 | > 100 | > 100 | > 100 | – | > 100 | > 100 | > 100 | > 100 | > 100 | > 100 | > 100 | > 100 | –
O=C1NC(=S)NC(=O)C1=Cc1ccc([N+](=O)[O-])o1 | > 100 | 36.3 | – | 48.7 | 60.1 | – | > 100 | 44.5 | 29.8 | > 100 | 31.6 | 41.6 | > 100 | 34 | > 100 | – | –
O=C(O)CCC1C(=O)C2CCN1CC2 (stereo not given) | > 100 | – | > 100 | > 100 | > 100 | > 100 | > 100 | > 100 | > 100 | > 100 | > 100 | > 100 | > 100 | > 100 | > 100 | > 100 | –
O=C(Oc1ccc(C(c2c(O)c3ccccc3oc2=O)c2c(O)c3ccccc3oc2=O)cc1)c1ccc(C(=O)c2ccccc2)cc1 | 69.9 | – | > 100 | 31.8 | 36.6 | > 100 | 25.9 | 75 | > 100 | 37.2 | 32.4 | > 100 | 33.9 | > 100 | 66.5 | > 100 | –
OC(Cc1cnnc2ccccc12)C(Cl)(Cl)Cl (stereo not given) | > 10 | > 10 | > 10 | > 10 | > 10 | > 10 | > 10 | > 10 | > 10 | > 10 | > 10 | > 10 | > 10 | > 10 | > 10 | > 10 | –
C=C(Cl)[C@](Cl)(CBr)CC[C@@H](Br)C(C)(C)Cl | 0.9 | 1.1 | 1.41 | 2.06 | 21.2 | 3.39 | 32.8 | 24.9 | 17.6 | 3.27 | 2.09 | 5.03 | 2.99 | 1.38 | 2.18 | – | 11.7
C#CC(O)/C=C/C(O)CCCC(O)CC#CC(O)C#CCCCCC(O)/C=C/CCCCCC(=O)CCCCCCCCCCCCCC(O)C(O)C#CC(=O)O (stereo not given) | > 25 | > 25 | > 25 | > 25 | 9.59 | > 25 | > 25 | > 25 | > 25 | > 25 | > 25 | – | > 25 | > 25 | > 25 | > 25 | –
O=C1NC(=Nc2ccccc2Cl)N/C1=C\c1c(Cl)cccc1Cl | > 100 | 61.8 | 99 | > 100 | > 100 | – | > 100 | 47.2 | 84.6 | > 100 | 76.3 | > 100 | 79.8 | 67.1 | > 100 | 81.1 | > 100

Compound | TGI [1] [µM] | TGI [2] [µM] | TGI [3] [µM] | TGI [4] [µM] | TGI [5] [µM] | TGI [6] [µM] | TGI [7] [µM] | TGI [8] [µM] | TGI [9] [µM] | TGI [10] [µM] | TGI [11] [µM] | TGI [12] [µM] | TGI [13] [µM] | TGI [14] [µM] | TGI [15] [µM] | TGI [16] [µM] | TGI [17] [µM]
CCN(CC)CC(C(C)=O)C(c1ccccc1)c1c(O)c2ccccc2oc1=O (stereo not given) | > 100 | – | – | > 100 | > 100 | – | > 100 | > 100 | > 100 | > 100 | > 100 | > 100 | > 100 | > 100 | > 100 | – | –
COC1(OC)CCCCCCCCC(OC)(OC)CCCCCCCC1 | > 100 | > 100 | > 100 | > 100 | > 100 | – | > 100 | > 100 | > 100 | > 100 | > 100 | > 100 | > 100 | > 100 | > 100 | > 100 | –
CC(C)(C)OC(=O)NC(Cc1ccc(OC(C)(C)C)cc1)C(=O)N[C@H]1CC[C@H](C(=O)O)C1 (stereo not given in full) | > 100 | – | > 100 | > 100 | > 100 | > 100 | > 100 | > 100 | > 100 | > 100 | > 100 | > 100 | > 100 | > 100 | > 100 | – | > 100
Cc1c(N)c(C#N)c2n(C)c3ncccc3n2c1=O | > 100 | > 100 | – | > 100 | – | – | > 100 | > 100 | > 100 | > 100 | > 100 | > 100 | > 100 | > 100 | > 100 | – | –
COc1ccc(NCc2cccc3c(=O)c4ccc(Cl)cc4oc23)cc1 | > 100 | > 100 | – | – | > 100 | > 100 | > 100 | > 100 | > 100 | – | > 100 | > 100 | > 100 | > 100 | – | > 100 | > 100
CSc1ccccc1NC1=NCCO1 | > 100 | > 100 | > 100 | > 100 | > 100 | > 100 | > 100 | > 100 | > 100 | > 100 | – | > 100 | > 100 | > 100 | > 100 | > 100 | –
O=S(=O)(N=[Se](=O)(c1ccccc1)c1ccccc1)c1ccccc1 | > 100 | > 100 | > 100 | > 100 | > 100 | > 100 | > 100 | > 100 | > 100 | > 100 | > 100 | > 100 | – | > 100 | > 100 | > 100 | –
CC12CCC(=O)N1[C@@H](c1ccccc1)[C@@H](c1ccccc1)O2 (stereo not given in full) | > 100 | > 100 | – | > 100 | > 100 | – | > 100 | > 100 | > 100 | > 100 | > 100 | > 100 | > 100 | > 100 | > 100 | – | –
COC(=O)c1ccccc1/C=C1\Cc2ccc3c(c2C1=O)CCC3 | > 100 | > 100 | > 100 | > 100 | > 100 | > 100 | > 100 | > 100 | > 100 | – | > 100 | > 100 | > 100 | > 100 | > 100 | > 100 | –
[N-]=[N+]=NC1(Cc2ccccc2)C(=O)Nc2ccccc2C1=O (stereo not given) | > 100 | > 100 | – | > 100 | > 100 | – | – | > 100 | > 100 | > 100 | > 100 | > 100 | > 100 | > 100 | > 100 | – | –
CC1(C)COC(c2cccc(C(O)c3ccc(Cl)cc3)c2)=N1 (stereo not given) | 88.6 | 59 | > 100 | 37.2 | > 100 | > 100 | 33.5 | 28.6 | 73.9 | > 100 | 60.5 | > 100 | – | 37.9 | 87.3 | 73.9 | –
Cc1cc(N(C)c2ccccc2)nc(N(C)c2ccccc2)n1 | 72.8 | – | > 100 | 39 | > 100 | 78.9 | 96 | 69.1 | > 100 | > 100 | > 100 | > 100 | 57.7 | 37.6 | > 100 | – | –
COC(=O)CSc1cc(Cl)c(C)cc1S(=O)(=O)Nc1n[nH]c(N)n1 | > 10 | > 10 | > 10 | > 10 | > 10 | – | > 10 | > 10 | > 10 | > 10 | > 10 | > 10 | > 10 | > 10 | > 10 | > 10 | > 10
Cc1cc(N(CCC#N)CCC#N)ccc1/C(Sc1ccccc1)=C(\NC(=O)/C=C/c1ccccc1)C(=O)Sc1ccccc1 | 8.53 | 15 | – | 11.8 | 2.78 | – | 10.7 | 16.3 | 7.29 | 38.2 | 17.7 | 15.3 | 25.9 | 9.79 | 3.81 | – | –
CC(=O)OC1CCn2c1nc1c2C(=O)C=C(N2CC2)C1=O (stereo not given) | 4.69 | 1.83 | – | 2.08 | 1.88 | 3.92 | 6 | 0.305 | 1.86 | 10.8 | 0.479 | 0.146 | 1.02 | 0.781 | 0.784 | 2.38 | 2.54
